Data on two compounds can be found in patent publication US6833249B2, “Quick and sensitive method of quantifying mycolic acid to develop anti-microbial agents and a diagnostic kit thereof” (Council of Scientific and Industrial Research, priority 2002, dated 2004).

The assay relates to mycolic acid biosynthesis. Description: spectrophotometric assay of mycolic acid (carbol fuchsin complex) from treated M. smegmatis cells. The assay is classed as cell-based, Mycobacterium smegmatis. Particulars: for production/synthesis of mycolic acid: Mycobacterium smegmatis treated with the substance, result in words; for absorbance at 495.89 nm: mycolic acid-carbol fuchsin complex in hexane, M. smegmatis grown 48 hrs at sub-lethal concentration (½ MIC): extract 312 μg/ml, thebaine 150 μg/ml, isoniazid 1 μg/ml, untreated control 1.4885. An excerpt: Mycolic acids are branched, β-hydroxy fatty acids which occur in the cell wall of Corynebacterium, Nocardia and Mycobacterium. Their molecular size varies with the genus, i.e., from 30, 50, 80-carbon atoms in the order described above. Because of the correlation between genus and mycolic acid size, the test for this biochemical marker is done in the early stage of the identification of unknown actinomycetes. The method followed in this invention for the extraction of mycolic acid is according to Minniken et al. (1975). After proper growth of the bacteria, the culture is centrifuged at 5000 RPM for 5 minutes and lyophilized. Dry bacteria (100 mg) are mixed with methanol (5 ml), Toluene (5 ml) and concentrated sulphuric acid (0.2 ml) in a 20-ml screw cap tube (poly tetra fluoro ethylene lined). The contents of the tube are mixed thoroughly and methanolysis is allowed to proceed for 12-16 hours at 75° C. (stationary incubation). The reaction mixture is allowed to cool and mycolic acid is extracted by adding 1 ml of hexane. After vigorous mixing the mixture is allowed to settle and the upper hexane layer containing mycolic acid is collected. Samples of the hexane extract were spotted on TLC coated with Merck silica gel H (0.5 mm), along with standard mycolic acid and the chromatogram is developed in petroleum ether: diethyl ether (85:15).
By using this method the mycolic acid produced by the control was quantified as well as treated cells of M. smegmatis with different plant extracts and compounds. Some of the compounds are known to inhibit mycolic acid biosynthesis and others are plant extracts and unknown compounds. The compounds and the extracts were selected on the basis of loosening of acid fast stain in Mycobacterium smegmatis.
The culture of Mycobacterium smegmatis was frown in nutrient broth containing the sub-lethal concentration (½ MIC) of the compounds/extracts for 48 hrs. The cells were harvested by centrifugation and the pellets were lyophilized. Equal amount of the cells (100 mg) were taken both of control and treated cells and kept for methanolysis overnight as described in Example 1. The extracted hexane layer was allowed to dry and a common stock (5 mg/ml) was used to run a TLC plate to determine how much the inhibition of mycolic acid by calculation the amount of produced mycolic acid by a densitometer.
Compounds, which were showing loosening of acid fast staining, were also tested for spectrophotometric assay. The strain of Mycobacterium smegmatis giving 100% acid fast staining was grown for 48 hours in 50 ml culture media. As described earlier treatment of different compounds were given at sub-lethal concentrations in replicates were also grown for 48 hours. […]
The details of the treatments and the absorbance by different treatments are described in Table 2.

Regarding `NNC(=O)c1ccncc1` [Isoniazid], the “production/synthesis of mycolic acid” value is listed as “does not allow the production of mycolic acid” and the “absorbance at 495.89 nm” value is reported as 0.

On to `COC1=CC=C2[C@H]3Cc4ccc(OC)c5c4[C@@]2(CCN3C)[C@H]1O5` [Thebaine], for which the “production/synthesis of mycolic acid” value is on record as “do not allow the synthesis of mycolic acid” and the “absorbance at 495.89 nm” value is 0.
